This is an account of results in US20250154180A1, “CRK-LIKE (CRKL) ADAPTOR PROTEIN INHIBITORS AND METHODS OF MAKING AND USING THE SAME” (Rutgers, The State University of New Jersey, priority 2022, published 2025).

Experiment [1] relates to CrkL phosphorylation by Ab1. As to the kind of experiment: in vitro kinase assay (CrkL phosphorylation by Ab1, western blot). It is filed as biochemical. As to conditions: 40 μM candidate drug; compared to Gleevec positive control. As to the method:
The expression of both CrkL and phosphor-CrkL in the negative control was arbitrarily set as “1”, and other treatments were relatively compared with the negative control. The pCrkL and CrkL were set as the phosphorylation ratio, while the kinase inhibition efficiency was set as (1−pCrkL/CrkL)×100%.
in vitro Kinase Assay—An in vitro kinase assay was conducted to detect CrkL phosphorylation by Ab1 and to determine whether candidate drugs identified in the AlphaScreen assays could inhibit phosphorylation. […] The pTyr207 antibody detected the level of phosphorylated CrkL. […]
To further verify the pCrkL inhibitor, a kinase assay was designed to evaluate the specificity of positive hits. […] The decreased amount of pCrkL can be detected and quantified by this kinase assay. […]
In total, ten candidate drugs (five that bind to Ab1 and five that bind to CrkL) were verified by the in vitro kinase inhibition assay followed by thermal shift analysis. […] For phosphorylated CrkL detection, only the phosphorylation of Tyr207 was specifically detected by the anti-CrkL phosphorylation antibodies (FIG. 3B). […]
For orientation: A western blot detects proteins with antibodies after separation by electrophoresis.

The subject of experiment [2] is MDA-231-GFP-LUC cells. As to the kind of experiment: MTT assay, MDA-231-GFP-LUC. As to conditions: five M Pomiferin for three days. Type of experiment: cell-based. As to the method:
(§1) MTT assay—The MTT assay was used to detect cell proliferation. Briefly, cells were plated in a 96-well plate at a density of 50,000 cells/well in 200 μl of culture medium with candidate drugs to be tested (DMSO as a negative control). The treated cells were incubated for four hours a 37° C. with a 5% CO2 incubator to allow dark crystals to form at the bottom of the wells. […] After aspirating the culture medium from each well, 100 μl of crystal dissolving solution was added to each well and incubated for 10 minutes at RT. The signal was quantified by measuring the absorbance in each sample at 570 nm using a microplate reader.
To further test the inhibitory specificity of Pomiferin for specific breast cancer cell lines, The survival percentage was compared between different hematopoietic cancer cell lines and healthy PBMCs.
In general terms: Formazan colour is commonly taken as a measure of viable cells.

Experiment [3] relates to pCrkL, P-ERK1/2, pJNK, BIM in MDA-231 and MDA-468 cells. Nature of the experiment: Western blotting of pCrkL and downstream proteins, breast cancer cells. Type of experiment: cell-based. As to the method: Western blotting—According to the company's protocol (Thermo Scientific, Waltham, MA). Western blotting was performed using 20 μg of total cell extracts. Briefly, transferred membranes were incubated with primary antibodies for […] according to the sensitivity of each antibody, followed by HRP-linked secondary antibody for 1 hour. Each membrane was stripped and re-probed for b-actin, which was used as an internal loading control. The protein bands were visualized using a chemiluminescence detection system (Thermo Scientific). The relative optical densities of each band were quantitated and indicated numerically below the bands in each Western blot.
To investigate the molecular mechanisms of Pomiferin-induced apoptosis in breast cancer cells. […] Cell proliferation was first determined by MTT assay as confirmation. […] CrkL is known to mediate the activation of both Raf/ERK and PI3K pathways. So, proteins that relate to these two pathways were utilized.
The Integrated Density Values (IDV) of each band were measured and shown under each blot. […] Inhibition of pCrkL breaks the balance of cell proliferation and death in triple-negative breast cancer cells by regulating these signaling transduction pathways (FIG. 15). The different expression of these proteins in TNBC vs. normal immune cells makes Pomiferin and compounds disclosed herein a candidate for cancer therapy.

The subject of experiment [4] is P-ERK1/2 in PBMC. Nature of the experiment: Western blotting, PBMC. It is filed as cell-based, human. Particulars: NC5 1, 5, 10 uM, 24 hours.
For experiment [5], the system named is PBMCs. Nature of the experiment: MTT assay, PBMCs from healthy donors. It is filed as cell-based, human. As to the method:
Peripheral blood mononuclear cells (PBMCs, line with the symbol □) were used to determine the specificities of the cytotoxic effects of Pomiferin. The survival curve of PBMC-average is from four different healthy donors. […]
as §1

Experiment [6] relates to MDA-MB-468 cells. Nature of the experiment: Annexin V/PI apoptosis, MDA-MB-468. Type of experiment: cell-based. As to conditions: 10 uM, 24 hours. As to the method: Annexin V/PI Staining—Experimental cells were collected, washed with 1×PBS, resuspended in the binding buffer, and stained with an Annexin V-FITC assay Kit (Millipore Sigma). The cells were incubated with 50 μg/ml Annexin V in 1× binding buffer at room temperature for 15 minutes, then 10 μg/ml propidium iodide for another 15 minutes and analyzed by flow cytometry (EPICS XL). Annexin V-positive/PI-negative cells were considered early apoptotic, cells with both Annexin V and PI-positive to be late apoptotic, and Annexin V negative but PI-positive to be “necrotic.” The percent of apoptosis was calculated as the sum of the percentages of both early and late apoptotic cells.
To figure out the features of cytotoxic effects of Pomiferin on breast cancer cells. Pomiferin-treated breast cancer cells were stained with an Annexin V/PI kit and measured them with Flow Cytometry.

Experiment [7] concerns MDA-MB-468 cells. Nature of the experiment: MTT proliferation assay, MDA-MB-468. Type of experiment: cell-based. As to the method:
as §1
Cell proliferation was first determined by MTT assay as confirmation. […] CrkL is known to mediate the activation of both Raf/ERK and PI3K pathways. So, proteins that relate to these two pathways were utilized.

As for `CC(C)=CCc1c2c(c3occ(-c4ccc(O)c(O)c4)c(=O)c3c1O)C=CC(C)(C)O2` [Pomiferin, 3′,4′,5-Trihydroxy-6″,6″-dimethyl-6-(3-methylbut-2-en-1-yl)-6″H-pyrano[2″,3″:7,8]isoflavone], the “kinase inhibition effect (CrkL phosphorylation)” value in experiment [1] is “comparable results similar to the kinase inhibition effect seen with Gleevec”. Besides, the “sensitivity to Pomiferin (survival percentage, MTT)” value in experiment [2] was “most sensitive cell to Pomiferin treatment”; in experiment [5] (five M Pomiferin for three days, compared with MDA-MD-231-LUC), “more resistant to Pomiferin inhibition”. For the same compound, the “P-ERK1/2 levels (Western blotting)” value in experiment [3] (NC5 1, 5, 10 uM, 24 hours) was “reduces P-ERK1/2 levels”; in experiment [4] it was “minimal changes”. Further, the “pCrkL levels (Western blotting)” value in experiment [3] (NC5 1, 5, 10 uM, 24 hours) was “dramatically inhibited”. Besides, the “BIM levels (Western blotting)” value in experiment [3] (NC5, 24 hours) is reported as “dramatically increased”. Also, the “pJNK levels (Western blotting)” value in experiment [3] (NC5, 24 hours) is given as “dramatically increased”. Besides, the “cell proliferation (MTT)” value in experiment [5] (1 uM, 5 uM and 10 uM, 24 hours) is given as “no statistical difference”; in experiment [7] (1 uM, 5 uM and 10 uM, 24 hours) it was “significantly inhibited cell proliferation”; in experiment [7] (2.5 μM, 48 hours, vs DMSO) it was “inhibited cell proliferation”. Further, the IC50 – broadly, the midpoint of a concentration-inhibition curve – in experiment [5] (Homo sapiens, 72 h, MTT, three days, PBMC average of four healthy donors) is above 18 µM. The “percentage of apoptotic cells” value in experiment [6] is “significantly increased”.
